Experimental data from patent US6974794B1, “Hemoglobin-antioxidant conjugates” (Hemosol LP, priority 1999, dated 2005).

Key:
[1] = tested on: erythrocytes; assay: Hemolysis of erythrocytes mediated by peroxyl radicals (AAPH); protection of RBCs against lysis; format: cell-based; details: for AUC, % of control: relative to the corresponding control without Trolox, CO-ligated
Procedure: Blood was collected into heparinized tubes and erythrocytes were separated by centrifugation and washed 3 times with 10 volumes of PBS, pH 7.4. During the last washing, erythrocytes were centrifuged at 1000×g for 10 minutes to obtain a consistently packed cell preparation. The assay for hemolysis mediated by peroxyl radicals was conducted by a modified method of Miki et al.,(M. Miki, H. Tamai, M. Mino, Y. Yamamoto and E. Niki., Arch. Biochem. Biophys. 258:373-380 (1987)). Equal volumes of a 30% suspension of fresh erythrocytes in PBS pH 7.4, test sample, and 300 mM 2,2;-azo-bis(2-amidinopropane dihydrochloride) (AAPH, a radical generator) were combined in order. Mixtures were prepared under CO gas and test hemoglobin concentration in the RBC assay suspension was 12-13 mg/ml. Mixtures were held at 37° C., and aliquots were diluted 20-fold in PBS and centrifuged at 1000×g for 10 minutes. As a measure of Hb released due to RBC lysis, the absorbances of supernatants were measured at 540 nm after conversion of all Hb to CN-metHb according to the method of Tentori (Meth. Enzymology 75:707 (1981)). Supernatant Hb levels were corrected for Hb added in the test samples.
The results for two products are presented graphically in FIG. 1, a plot of relative RBC lysis against time for the various products. Products analyzed were prepared as described for reaction #6 (Hb-Trolox B) and reaction #7 (Hb-Trolox A) in Table 1 of Example 1. […] Relative protection was also determined by comparison of areas under the curves (AUC) obtained by plotting RBC lysate absorbance versus time. AUC is determined by the time of onset, rate, and overall extend of RBC lysis. Lower AUC values indicate greater protection of RBCs against lysis.
Using the method described in Example 2, the anti-oxidant activities of the two conjugates were measured. Samples were CO-ligated and concentration of the conjugates and controls in the RBC assay suspension was 12 mg/mL.
Using the method described in Example 1, the anti-oxidant activity of the polyOR-Hb-TX was measured. Products tested included oxygen and CO-ligated polyOR-Hb (no treatment with TX or EDC), CO-ligated product reserved prior to oxygenation as described above, and oxygenated product. All products were present in the RBC lysis assay suspension at 11.7 mg/mL.
Using the method described in Example 1, the antioxidant activities of the polyOR-Hb-TX products prepared under deoxy conditions (Example 8) and CO conditions (Example 6) were measured. Samples were CO-ligated and concentration of the conjugates and controls in the RBC assay suspension was 12 mg/mL. An equal concentration of polyOR-Hb, as well as two concentrations of Trolox alone representing 1× and 0.5× its solubility limit in the test solution, were evaluated.

[2] = P50 measured with a Hemox-Analyzer; details: 37° C.
Procedure: Trolox was conjugated to polyOR-Hb under deoxy conditions to prepare a product with a high P50, more suitable for use as an HBOC. PolyOR-Hb and MES buffer were deoxygenated by standard means. 0.78 g Trolox was reacted with 0.60 g EDC in 4 mL of acetonitrile for 10-20 minutes at room temperature. This solution was added to 2.04 g polyOR-Hb in 200 mL 120 mM MES pH 7.0. Two identical additions were made after 4 and 21 hours. At 27 hours following the first addition, the reaction mixture was charged with CO gas, filtered, concentrated and dialyzed extensively against PBS.

[3] = tested on: conscious rat; assay: Hemodynamic effect following 10% topload infusion in conscious rat; format: in vivo; details: for Pre-infusion HR / baseline MAP prior to infusion: conscious Sprague-Dawley rat, before infusion; for baseline MAP prior to infusion: four animals per group; for HR after infusion / MAP following infusion: 10% topload infusion of 7.7 g/dL solution in lactated Ringer's
Procedure: Male Sprague-Dawley rats (250-350 g) were anesthetized with isoflurane on the day of the experiment. The right femoral artery and vein were cannulated. After 1.5 hour recovery from surgery, conscious animals residing in a metabolic cages were infused with either of two solutions: oxygenated polyOR-TX prepared in Example 6 or polyOR-Hb (no TX-EDC treatment; both solutions were 7.7 g/dL in lactated Ringer's solution). Infusion volume was equal to 10% of the animal's estimated blood volume. Mean arterial blood pressure (MAP) and heart rate (HR) were recorded 30 minutes prior to infusion to establish baseline values, during infusion and for 2 hours following infusion (FIGS. 3 and 4). Four animals were tested in each of the two groups. The baseline MAP prior to infusion was 101±4 mm Hg (polyOR-Hb) and 110±3 mm Hg (polyOR-Hb-TX). […] Pre-infusion HR were 407±17 and 394±17 beats per minute (bpm) in the polyOR-Hb and polyOR-Hb-TX groups, respectively.

[4] = Table 7, CO-ligated samples, 12 mg/mL in RBC assay suspension
[5] = Table 8, 11.7 mg/mL in RBC lysis assay suspension
[6] = Table 4, hemoglobin 0.20 mM (12-13 mg/ml) in RBC assay suspension, under CO, 37° C., bound Trolox 0.32 mM (A), 0.45 mM (B), lower AUC = greater protection

1× TX-EDC (Reaction A): polyOR-Hb conjugated with Trolox by a single addition of Trolox/EDC
AUC relative to AAPH control (%) [1, 4]: 27%
AUC, % of control ([1]; 12 mg/mL): 33%

PolyOR-Hb-TX (CO form): CO-ligated product of Example 6 reserved prior to oxygenation
AUC relative to AAPH control (%) [1, 5]: 6%

PolyOR-Hb-TX (from Example 8): Trolox conjugated to polyOR-Hb under deoxy conditions
AUC relative to AAPH control (%) ([1]; Table 9, CO form, 12 mg/mL): 3%
P50 [2]: 40 mm Hg

3× Control: control product: polyOR-Hb reacted with EDC alone, no Trolox added, three additions
AUC relative to AAPH control (%) [1, 4]: 69%

1× Control: control product: polyOR-Hb reacted with EDC alone, no Trolox added, single addition
AUC relative to AAPH control (%) [1, 4]: 83%

PolyOR-Hb (Oxy form): oxygen-ligated polyOR-Hb, no treatment with TX or EDC
AUC relative to AAPH control (%) [1, 5]: 39%

Free Hb (B): free (control) hemoglobin; product of the control reaction corresponding to Hb-Trolox B, no TX-EDC added
AUC relative to AAPH control (%) [1, 6]: 35%

3× TX-EDC (Reaction B): polyOR-Hb conjugated with Trolox by three additions of Trolox/EDC
AUC, % of control ([1]; 12 mg/mL): 3%

Cc1c(C)c2c(c(C)c1O)CCC(C)(C(=O)O)O2 (centres unmarked) [Free Trolox, 2,5,7,8-tetramethyl-2-carboxy-chroman-6-ol]
AUC relative to AAPH control (%) ([1]; Table 4, Trolox 0.50 mM, no hemoglobin): 88%
AUC relative to AAPH control (%) ([1]; Table 9, Trolox alone 0.26 mM (0.5× its solubility limit)): 87%
AUC relative to AAPH control (%) ([1]; Table 9, Trolox alone 0.52 mM (1× its solubility limit)): 70%

PolyOR-Hb (CO form): CO-ligated polyOR-Hb, no treatment with TX or EDC
AUC relative to AAPH control (%) [1, 5]: 47%

Free Hb (A): free (control) hemoglobin; product of the control reaction corresponding to Hb-Trolox A, no TX-EDC added
AUC relative to AAPH control (%) [1, 6]: 39%

PolyOR-Hb-TX (Oxy form): oxygenated product of Example 6
AUC relative to AAPH control (%) [1, 5]: 15%

PolyOR-Hb-TX (from Example 6): Trolox conjugate of o-raffinose polymerized hemoglobin, large scale, prepared under CO conditions
AUC relative to AAPH control (%) ([1]; Table 9, CO form, 12 mg/mL): 0%
Pre-infusion HR [3]: 394±17 bpm
baseline MAP prior to infusion [3]: 110±3 mm Hg
HR after infusion ([3]; conscious rat): 316±10 bpm
MAP following infusion ([3]; conscious rat): 151±1 mm Hg
Hemodynamic properties compared with polyOR-Hb ([3]; conscious rat, 10% topload infusion, result in words): did not alter the hemodynamic properties
P50 [2]: 16 mm Hg

PolyOR-Hb: o-raffinose cross-linked / polymerized hemoglobin, no treatment with TX or EDC [reference compound]
AUC relative to AAPH control (%) ([1]; Table 9, CO form, 12 mg/mL): 28%
Pre-infusion HR [3]: 407±17 bpm
baseline MAP prior to infusion [3]: 101±4 mm Hg
HR after infusion ([3]; conscious rat): 345±16 bpm
MAP following infusion ([3]; conscious rat): 142±7 mm Hg
P50 [2]: 41 mm Hg
